Measured values reported in the NIST ThermoML archive (doi:10.1016/j.jct.2004.07.024).

Assay: xn = mol fraction of the nth substance listed
Details: 101.33 kPa, Liquid

CCc1ccccc1 [ethylbenzene] + C[S+](C)[O-]
Details | mass density [kg/m3]
293.15 K, x1 = 0.0626 | 1076.31
293.15 K, x1 = 0.1596 | 1043.57
293.15 K, x1 = 0.2203 | 1025.03
293.15 K, x1 = 0.2983 | 1003.06
293.15 K, x1 = 0.3698 | 984.55
293.15 K, x1 = 0.4623 | 962.58
293.15 K, x1 = 0.5186 | 950.18
293.15 K, x1 = 0.5712 | 939.18
293.15 K, x1 = 0.6285 | 927.89
293.15 K, x1 = 0.6802 | 918.18
293.15 K, x1 = 0.7525 | 905.36
293.15 K, x1 = 0.8102 | 895.69
293.15 K, x1 = 0.8723 | 885.81
293.15 K, x1 = 0.9456 | 874.79
303.15 K, x1 = 0.0669 | 1065.53
303.15 K, x1 = 0.1456 | 1038.79
303.15 K, x1 = 0.2569 | 1005.2
303.15 K, x1 = 0.3203 | 988
303.15 K, x1 = 0.3956 | 969
303.15 K, x1 = 0.4569 | 954.63
303.15 K, x1 = 0.5132 | 942.23
303.15 K, x1 = 0.5856 | 927.28
303.15 K, x1 = 0.6277 | 919.04
303.15 K, x1 = 0.7065 | 904.51
303.15 K, x1 = 0.7856 | 890.93
303.15 K, x1 = 0.8359 | 882.8
303.15 K, x1 = 0.8856 | 875.1
303.15 K, x1 = 0.9503 | 865.51
313.15 K, x1 = 0.0624 | 1056.77
313.15 K, x1 = 0.1459 | 1028.39
313.15 K, x1 = 0.2201 | 1005.62
313.15 K, x1 = 0.2692 | 991.65
313.15 K, x1 = 0.3314 | 975.03
313.15 K, x1 = 0.3963 | 958.87
313.15 K, x1 = 0.4456 | 947.35
313.15 K, x1 = 0.4965 | 936.07
313.15 K, x1 = 0.5216 | 930.71
313.15 K, x1 = 0.5986 | 915.08
313.15 K, x1 = 0.6853 | 898.86
313.15 K, x1 = 0.7526 | 887.13
313.15 K, x1 = 0.8418 | 872.68
313.15 K, x1 = 0.9258 | 860.05
323.15 K, x1 = 0.0625 | 1046.39
323.15 K, x1 = 0.1786 | 1007.95
323.15 K, x1 = 0.2469 | 987.84
323.15 K, x1 = 0.3095 | 970.78
323.15 K, x1 = 0.3698 | 955.5
323.15 K, x1 = 0.4152 | 944.61
323.15 K, x1 = 0.4723 | 931.67
323.15 K, x1 = 0.5362 | 918.08
323.15 K, x1 = 0.6048 | 904.45
323.15 K, x1 = 0.6604 | 894.04
323.15 K, x1 = 0.7301 | 881.76
323.15 K, x1 = 0.7992 | 870.36
323.15 K, x1 = 0.8683 | 859.65
323.15 K, x1 = 0.9226 | 851.65
333.15 K, x1 = 0.066 | 1034.83
333.15 K, x1 = 0.1159 | 1017.74
333.15 K, x1 = 0.1896 | 994.42
333.15 K, x1 = 0.2156 | 986.74
333.15 K, x1 = 0.2765 | 969.61
333.15 K, x1 = 0.3286 | 955.9
333.15 K, x1 = 0.3964 | 939.26
333.15 K, x1 = 0.4598 | 924.75
333.15 K, x1 = 0.5349 | 908.81
333.15 K, x1 = 0.6126 | 893.53
333.15 K, x1 = 0.6861 | 880.14
333.15 K, x1 = 0.7698 | 865.99
333.15 K, x1 = 0.8459 | 854.04
333.15 K, x1 = 0.9025 | 845.66
343.15 K, x1 = 0.0599 | 1026.68
343.15 K, x1 = 0.1569 | 994.32
343.15 K, x1 = 0.2363 | 970.71
343.15 K, x1 = 0.3001 | 953.33
343.15 K, x1 = 0.3895 | 931.07
343.15 K, x1 = 0.4519 | 916.81
343.15 K, x1 = 0.5163 | 903.06
343.15 K, x1 = 0.5698 | 892.31
343.15 K, x1 = 0.6389 | 879.27
343.15 K, x1 = 0.6895 | 870.27
343.15 K, x1 = 0.7558 | 859.13
343.15 K, x1 = 0.8106 | 850.44
343.15 K, x1 = 0.8895 | 838.64
343.15 K, x1 = 0.9502 | 830.09
353.15 K, x1 = 0.059 | 1016.69
353.15 K, x1 = 0.1555 | 984.6
353.15 K, x1 = 0.2236 | 964.29
353.15 K, x1 = 0.2856 | 947.23
353.15 K, x1 = 0.3384 | 933.66
353.15 K, x1 = 0.4089 | 916.78
353.15 K, x1 = 0.4625 | 904.82
353.15 K, x1 = 0.5185 | 893.03
353.15 K, x1 = 0.5665 | 883.47
353.15 K, x1 = 0.6255 | 872.34
353.15 K, x1 = 0.6706 | 864.28
353.15 K, x1 = 0.7556 | 850
353.15 K, x1 = 0.8326 | 838.04
353.15 K, x1 = 0.9129 | 826.41

C=Cc1ccccc1 [styrene] + C[S+](C)[O-]
Details | mass density [kg/m3]
293.15 K, x1 = 0.062 | 1081.91
293.15 K, x1 = 0.1289 | 1064.06
293.15 K, x1 = 0.2169 | 1042.53
293.15 K, x1 = 0.2956 | 1024.85
293.15 K, x1 = 0.3596 | 1011.37
293.15 K, x1 = 0.4103 | 1001.24
293.15 K, x1 = 0.4596 | 991.74
293.15 K, x1 = 0.5023 | 983.85
293.15 K, x1 = 0.5689 | 972.01
293.15 K, x1 = 0.626 | 962.31
293.15 K, x1 = 0.7025 | 949.86
293.15 K, x1 = 0.7865 | 936.88
293.15 K, x1 = 0.8595 | 926.02
293.15 K, x1 = 0.9312 | 915.7
303.15 K, x1 = 0.0852 | 1066.12
303.15 K, x1 = 0.1495 | 1049.28
303.15 K, x1 = 0.2015 | 1036.5
303.15 K, x1 = 0.2695 | 1020.82
303.15 K, x1 = 0.3351 | 1006.61
303.15 K, x1 = 0.4055 | 992.33
303.15 K, x1 = 0.4824 | 977.63
303.15 K, x1 = 0.5588 | 963.89
303.15 K, x1 = 0.6196 | 953.53
303.15 K, x1 = 0.6726 | 944.85
303.15 K, x1 = 0.7369 | 934.68
303.15 K, x1 = 0.8069 | 924.05
303.15 K, x1 = 0.8756 | 913.99
303.15 K, x1 = 0.9458 | 904.01
313.15 K, x1 = 0.0665 | 1060.82
313.15 K, x1 = 0.1856 | 1029.88
313.15 K, x1 = 0.2581 | 1012.95
313.15 K, x1 = 0.3296 | 997.38
313.15 K, x1 = 0.3895 | 985.13
313.15 K, x1 = 0.4469 | 973.98
313.15 K, x1 = 0.5132 | 961.75
313.15 K, x1 = 0.5958 | 947.37
313.15 K, x1 = 0.6553 | 937.53
313.15 K, x1 = 0.7125 | 928.47
313.15 K, x1 = 0.7665 | 920.19
313.15 K, x1 = 0.8269 | 911.23
313.15 K, x1 = 0.8801 | 903.57
313.15 K, x1 = 0.9485 | 893.98
323.15 K, x1 = 0.0653 | 1050.77
323.15 K, x1 = 0.1856 | 1019.46
323.15 K, x1 = 0.2513 | 1004.06
323.15 K, x1 = 0.3257 | 987.81
323.15 K, x1 = 0.3969 | 973.33
323.15 K, x1 = 0.4582 | 961.55
323.15 K, x1 = 0.5296 | 948.61
323.15 K, x1 = 0.5701 | 941.56
323.15 K, x1 = 0.6352 | 930.72
323.15 K, x1 = 0.6925 | 921.57
323.15 K, x1 = 0.7468 | 913.21
323.15 K, x1 = 0.8169 | 902.83
323.15 K, x1 = 0.8825 | 893.48
323.15 K, x1 = 0.9555 | 883.37
333.15 K, x1 = 0.0626 | 1041.08
333.15 K, x1 = 0.1745 | 1011.71
333.15 K, x1 = 0.2469 | 994.63
333.15 K, x1 = 0.2963 | 983.69
333.15 K, x1 = 0.3458 | 973.27
333.15 K, x1 = 0.3899 | 964.37
333.15 K, x1 = 0.4525 | 952.34
333.15 K, x1 = 0.5252 | 939.14
333.15 K, x1 = 0.6053 | 925.5
333.15 K, x1 = 0.6852 | 912.68
333.15 K, x1 = 0.7562 | 901.86
333.15 K, x1 = 0.8362 | 890.23
333.15 K, x1 = 0.8826 | 883.72
333.15 K, x1 = 0.9332 | 876.75
343.15 K, x1 = 0.0866 | 1023.99
343.15 K, x1 = 0.1762 | 1000.88
343.15 K, x1 = 0.2459 | 984.45
343.15 K, x1 = 0.2856 | 975.61
343.15 K, x1 = 0.3595 | 960.11
343.15 K, x1 = 0.4041 | 951.25
343.15 K, x1 = 0.4896 | 935.26
343.15 K, x1 = 0.5695 | 921.33
343.15 K, x1 = 0.6254 | 912.1
343.15 K, x1 = 0.6925 | 901.53
343.15 K, x1 = 0.7569 | 891.83
343.15 K, x1 = 0.8042 | 884.96
343.15 K, x1 = 0.8685 | 875.91
343.15 K, x1 = 0.9344 | 866.93
353.15 K, x1 = 0.0659 | 1019.29
353.15 K, x1 = 0.1289 | 1002.33
353.15 K, x1 = 0.1865 | 987.92
353.15 K, x1 = 0.2415 | 975.04
353.15 K, x1 = 0.3063 | 960.8
353.15 K, x1 = 0.3895 | 943.8
353.15 K, x1 = 0.4589 | 930.59
353.15 K, x1 = 0.5362 | 916.84
353.15 K, x1 = 0.6089 | 904.68
353.15 K, x1 = 0.6812 | 893.25
353.15 K, x1 = 0.7462 | 883.47
353.15 K, x1 = 0.8126 | 873.91
353.15 K, x1 = 0.8865 | 863.68
353.15 K, x1 = 0.9522 | 854.91
